Data set [1] has as its system Aspergillus flavus ATCC 28539. The experiment in a line: MEC assay (CLSI M38-A2), Aspergillus flavus ATCC 28539. The format is cell-based. The conditions noted are these: first batch; 28° C., 21-26 h. The procedure: (§1) After a test compound was serially diluted, an MIC (minimum inhibitory concentration) assay was performed on the standard Candida strain and an MEC (minimum effective concentration) assay on the standard Aspergillus strain. The MIC assay was performed according to the guidelines of the Clinical and Laboratory Standards Institute (CLSI M27-A3) and the MEC assay according to the guidelines of the Clinical and Laboratory Standards Institute (CLSI M38-A2).
Aspergillus was passaged onto an SDA plate and cultured at 35° C. for 48 h to 7 d to induce sporulation. Colonies on the plate were covered with about 1 mL of 0.85% normal saline or sterile water (polysorbate 20 was added at a final concentration of 0.1%-0.01%). The medium was gently wiped on its surface with a tip or a sterile cotton swab (be careful not to break the medium), and the spore hyphae suspension was transferred to a sterile tube and let stand for 3-5 min so that the heavy particles settled. The homogeneous upper layer of the suspension was transferred to a new sterile tube, which was then sealed and vortexed for 15 s (be careful as the suspension may produce an aerosol when the cover is removed). The concentration of the suspension was adjusted until an OD value of 0.09-0.13 was achieved using a spectrophotometer at 530 nm. The suspension was 50-fold diluted with 1×RPMI 1640. 100 μL of sample was added to each well of the 96-well plate within 2 h after dilution (the final spore concentration in the susceptibility testing plate was at 0.4×10^4 to 5×10^4 CFU/mL).
Colony counting: The suspension diluted with RPMI 1640 was further diluted 10-fold, and 10 μL of the dilution was applied to an SDA plate, cultured at 28° C., and observed every day; colonies were immediately counted upon being visible to the naked eye.
(§2) For echinocandin drugs, Aspergillus was incubated at 28° C. for 21-26 h, and then the MEC results were read.
• Yeast-type fungi: A disposable sealing film was applied to the 96-well plate, and the mixture was well mixed by shaking. Observation was performed through a plate reader with the naked eye. Comparisons were made to the growth control, and the minimum compound concentration corresponding to ≥50% growth inhibition was defined as MIC. Pictures were taken and saved using an automatic plate reader. • Aspergillus: For echinocandin drugs, comparisons were made to the growth control under a plate reader, and the minimum drug concentration that could cause the hyphae to form small, round, compact hyphal particles was defined as MEC. For accurate determination of MEC values, the plate must not be vortexed before reading.

The test system of the next data set is plasma histamine. The experiment in a line: Plasma histamine assay after single intravenous injection. In kind it is in vivo, SD rats. The procedure: (§3) 12 SD rats were divided into 2 groups of 6 (half are male and half female). […] The body weights were measured once before administration. Administration was performed by single intravenous injection for 20 min per animal. PK measurement was performed once before administration and 5 min, 30 min, 1 h, 4 h, 8 h, 24 h, 48 h, 72 h and 96 h after administration. A histamine assay was performed once before administration and 30 min, 4 h, 8 h and 24 h after administration.

A short description of data set [2]: Pharmacokinetic study after single intravenous injection. In kind it is in vivo, SD rats. To be noted: Sprague-Dawley, rat, plasma, 10 mg/kg i.v.; for AUC(0-t): read-out: AUC0-96; for Vd: read-out: VdSS. The procedure: as §3
Data set [3] concerns Candida glabrata ATCC 15126. As to the kind of experiment: MIC assay (CLSI M27-A3), Candida glabrata ATCC 15126. In kind it is cell-based. The conditions noted are these: first batch; 24 h, ≥50% growth inhibition. As for the experimental part: as §1
(§4) The frozen strain was passaged at least twice, and a single colony was picked and resuspended in normal saline or sterile water in a tube. […]
as §2
(§5) • Yeast-type fungi: A disposable sealing film was applied to the 96-well plate, and the mixture was well mixed by shaking. Observation was performed through a plate reader with the naked eye. […] Pictures were taken and saved using an automatic plate reader. • Aspergillus: For echinocandin drugs, comparisons were made to the growth control under a plate reader, and the minimum drug concentration that could cause the hyphae to form small, round, compact hyphal particles was defined as MEC. For accurate determination of MEC values, the plate must not be vortexed before reading.

The test system of data set [4] is Candida parapsilosis ATCC 22019. The experiment in a line: MIC assay (CLSI M27-A3), Candida parapsilosis ATCC 22019. In kind it is cell-based. To be noted: first batch; 24 h, ≥50% growth inhibition; quality control strain. The procedure:
as §1, §4, §2, §5

Data set [5] deals with Candida albicans ATCC 90029. The experiment in a line: MIC assay (CLSI M27-A3), Candida albicans ATCC 90029. The format is cell-based. The conditions noted are these: first batch; 24 h, ≥50% growth inhibition. As for the experimental part: as §1, §4, §2, §5
Data set [6] has as its system Candida tropicalis ATCC 750. As to the kind of experiment: MIC assay (CLSI M27-A3), Candida tropicalis ATCC 750. The format is cell-based. To be noted: first batch; 24 h, ≥50% growth inhibition. The procedure:
as §1, §4, §2, §5

For data set [7], the system named is Meyerozyma guilliermondii ATCC 6260. The experiment in a line: MIC assay (CLSI M27-A3), Meyerozyma guilliermondii ATCC 6260. In kind it is cell-based. The conditions noted are these: first batch; 24 h, ≥50% growth inhibition. The procedure:
as §1, §4, §2, §5

The test system of another data set is Candida krusei ATCC 6258. As to the kind of experiment: MIC assay (CLSI M27-A3), Candida krusei ATCC 6258. In kind it is cell-based. To be noted: first batch; 24 h, ≥50% growth inhibition; quality control strain. The procedure: as §1, §4, §2, §5
Data set [8] deals with Candida albicans (azole drug-resistant strain) R358. The experiment in a line: MIC assay (CLSI M27-A3), Candida albicans azole drug-resistant strain R358. In kind it is cell-based. The conditions noted are these: second batch; 24 h. As for the experimental part: as §1, §4, §2, §5
The test system of the next data set is SD rats. As to the kind of experiment: General state observation after single intravenous injection. To be noted: 10 mg/kg single intravenous injection, day of administration. In kind it is in vivo. The procedure: as §3
Data set [9] relates to Candida albicans ATCC 90028. As to the kind of experiment: MIC assay (CLSI M27-A3), Candida albicans ATCC 90028. The format is cell-based. To be noted: second batch. As for the experimental part: as §1, §4, §2, §5
In data set [10] the test system is Candida glabrata ATCC 36583. The experiment in a line: MIC assay (CLSI M27-A3), Candida glabrata ATCC 36583. In kind it is cell-based. The conditions noted are these: second batch; 24 h. As for the experimental part: as §1, §4, §2, §5
Data set [11] relates to Candida albicans ATCC 44858. As to the kind of experiment: MIC assay (CLSI M27-A3), Candida albicans ATCC 44858. In kind it is cell-based. To be noted: second batch; 24 h. As for the experimental part:
as §1, §4, §2, §5

The subject of data set [12] is Candida albicans (azole drug-resistant strain) R357. As to the kind of experiment: MIC assay (CLSI M27-A3), Candida albicans azole drug-resistant strain R357. In kind it is cell-based. The conditions noted are these: second batch; 24 h. The procedure: as §1, §4, §2, §5
The subject of data set [13] is Candida tropicalis (amphotericin-resistant strain) ATCC 200956. The experiment in a line: MIC assay (CLSI M27-A3), Candida tropicalis amphotericin-resistant strain ATCC 200956. In kind it is cell-based. To be noted: second batch; 24 h. The procedure: as §1, §4, §2, §5

Like-named read-outs stand apart in the source and are kept apart here. *1 amine or outer side, *2 acyl side, *3 side chain or, on linkers, in order; H or OH if unused. Where a SMILES comes first, the peptide text is derived from it. Bridges are numbered along the chain shown (N, C = ends). [ ]: non-standard residue; d: D form. The star is where a group is joined. pTerphenylCO(4''-OnC5H11) = CCCCCOc1ccc(-c2ccc(-c3ccc(C(=O)*)cc3)cc2)cc1; Orn(4R-OH,5R-OH) = O=C([C@H](C[C@@H](O)[C@@H](O)N[*:3])N[*:1])[*:2]; hTyr(3S-OH,4S-OH) = N[C@H](C(=O)O)[C@H](O)[C@@H](O)c1ccc(O)cc1; Pro(3S-OH,4S-Me) = C[C@H]1CN[C@H](C(=O)O)[C@H]1O; Hyp = O=C(O)[C@@H]1C[C@@H](O)CN1

The term AUC(0-inf) denotes the area under the concentration-time curve extrapolated to infinity. For orientation: Cmax means the maximum level reached in the sampled fluid or tissue. In general, clearance refers to a measure of how efficiently the substance is removed, as volume per time. The term half-life denotes how long it takes for the measured level to halve.

With `CCCCCOc1ccc(-c2ccc(-c3ccc(C(=O)N[C@H]4C[C@@H](O)[C@@H](O)NC(=O)[C@@H]5[C@@H](O)[C@@H](C)CN5C(=O)[C@H]([C@@H](C)O)NC(=O)[C@H]([C@H](O)[C@@H](O)c5ccc(O)cc5)NC(=O)[C@@H]5C[C@@H](O)CN5C(=O)[C@H]([C@@H](C)O)NC4=O)cc3)cc2)cc1` [Anidulafungin] ({pTerphenylCO(4''-OnC5H11)}-[Orn(4R-OH,5R-OH)]T[Hyp][hTyr(3S-OH,4S-OH)]T[Pro(3S-OH,4S-Me)]; lactam 1-C), in data set [1], the “MEC Aspergillus flavus ATCC 28539” value worked out at 0.031 µg/mL.
On to `CCCCCOc1ccc(-c2ccc(-c3ccc(C(=O)N[C@H]4C[C@@H](O)[C@@H](OC[C@H]5CCC[N+]5(C)C)NC(=O)[C@@H]5[C@@H](O)[C@@H](C)CN5C(=O)[C@H]([C@@H](C)O)NC(=O)[C@H]([C@H](O)[C@@H](O)c5ccc(O)cc5)NC(=O)[C@@H]5C[C@@H](O)CN5C(=O)[C@H]([C@@H](C)O)NC4=O)cc3)cc2)cc1` [Compound of formula (I)], for which the “ability to induce increases in the histamine level in rats” value with plasma histamine (same dose (10 mg/kg) i.v., compared with rezafungin acetate) is on record as “significantly lower”. In addition, the “MEC Aspergillus flavus ATCC 28539” value in data set [1] came out at 0.031 µg/mL. Further, in data set [2] (female SD rats), the total exposure AUC(0-inf) came to 195 µg·h/mL, the peak level (Cmax) was 9300 ng/mL, the clearance came out at 0.9 mL/min/kg and the half-life is 25.5 h. Besides, in data set [2] (female SD rats), the AUC(0-t) was 180 µg·h/mL and the Vd came to 1.8 L/kg. In data set [2] (male SD rats), this molecule showed a total exposure AUC(0-inf) of 191 µg·h/mL, a Cmax of 8000 ng/mL, a clearance of 0.9 mL/min/kg and a half-life of 27.7 h. For the same molecule, in data set [2] (male SD rats), the AUC(0-t) worked out at 174 µg·h/mL and the Vd was found to be 1.9 L/kg.
For the molecule Caspofungin acetate, the “MIC Candida glabrata ATCC 15126” value in [3] is 0.25 µg/mL. Moreover, the “MIC Candida parapsilosis ATCC 22019” value in [4] was determined as 1 µg/mL. Besides, the “MIC Candida albicans ATCC 90029” value in data set [5] was determined as 0.063 µg/mL. In addition, the “MIC Candida tropicalis ATCC 750” value in [6] came to 0.016 µg/mL. Also, in data set [1], the “MEC Aspergillus flavus ATCC 28539” value is 0.031 µg/mL. For the same molecule, the “MIC Meyerozyma guilliermondii ATCC 6260” value in [7] worked out at 1 µg/mL. Also, in the data set on Candida krusei ATCC 6258, the “MIC Candida krusei ATCC 6258” value amounted to 1 µg/mL.
In the case of Rezafungin acetate, in data set [3], the “MIC Candida glabrata ATCC 15126” value was determined as 0.125 µg/mL. Besides, the “MIC Candida parapsilosis ATCC 22019” value in data set [4] is 2 µg/mL. Further, the “MIC Candida albicans ATCC 90029” value in [5] is 0.125 µg/mL. Moreover, the “fold higher mean plasma histamine concentration than group 1” value with plasma histamine (30 min after administration, 10 mg/kg i.v., p=0.046) was 4.5 times. For the same molecule, the “MIC Candida albicans (azole drug-resistant strain) R358” value in data set [8] worked out at 0.25 µg/mL. For the same molecule, in the data set with SD rats, the general state observation result is “transient slight decrease in activity occurred in 2 females”. Besides, the “MIC Candida albicans ATCC 90028” value in data set [9] (24 h) worked out at 0.25 µg/mL. Moreover, in [9] (+ 50% human serum), the “MIC Candida albicans + 50% human serum ATCC 90028” value came to 0.25 µg/mL. For the same molecule, the “MIC Candida glabrata ATCC 36583” value in data set [10] was found to be 0.25 µg/mL. Besides, the “MIC Candida tropicalis ATCC 750” value in data set [6] turned out to be 0.016 µg/mL. Further, in data set [11], the “MIC Candida albicans ATCC 44858” value was determined as 0.25 µg/mL. Also, the “MIC Candida albicans (azole drug-resistant strain) R357” value in data set [12] came to 0.25 µg/mL. Also, the “MEC Aspergillus flavus ATCC 28539” value in [1] was 0.031 µg/mL. For the same molecule, the “MIC Candida tropicalis (amphotericin-resistant strain) ATCC 200956” value in data set [13] came to 0.25 µg/mL. The “MIC Meyerozyma guilliermondii ATCC 6260” value in data set [7] is 2 µg/mL. Also, in the data set on Candida krusei ATCC 6258, the “MIC Candida krusei ATCC 6258” value is 0.25 µg/mL.
